Assay results reported in patent US20050208549A1, “Testing endosymbiont cellular organelles and compounds identifiable therewith” (priority 2000, published 2005).

How the values were obtained:
Fibroblast cells = assay: NASBA ratio of mitochondrial DNA to chromosomal DNA in cultured fibroblast cells; type: cell-based; conditions: culture period of four weeks, antiviral drugs at 3 μM and 30 μM
Experimental: (§1) In Table 1, the primers and probes used in the examples are summarized. Standard NASBA nucleic acid amplification reactions were performed in a 20 μl reaction volume and contained: 40 mM Tris-pH 8.5, 70 mM KCl, 12 mM MgCl2, 5 mM dithiothreitol, 1 mM dNTPs (each), 2 mM rNTPs (each), 0.2 μM primer (each), 0.05 μM molecular beacon, 375 mM sorbitol, 0.105 μg/μl bovine serum albumin, 6.4 units AMV RT, 32 units T7 RNA polymerase, 0.08 units RNAse H and input nucleic acid. The complete mixture, except the enzymes, sorbitol and/or bovine serum albumin was, prior to adding the enzyme mixture, heated to 65° C. for two minutes in order to denature any secondary structure in the RNA and to allow the primers to anneal. After cooling the mixture to 41° C., the enzymes were added. The amplification took place at 41° C. for 90 minutes in a fluorimeter (CytoFluor 2000) and the fluorescent signal was measured every minute (using the filter set 530/25 nm and 485/30 nm). […]
(§2) To achieve quantification, a dilution series of target sequences for a particular primer set was amplified and the time points at which the reactions became positive (the time to positivity, TTP) were plotted against the input amounts of nucleic acid. This way a calibration curve was created that could be used to read TTP values of reactions with unknown amounts of input and deduce the input amount. […]

[1] = cited from earlier work
[2] = system: peripheral blood mononuclear cells (PBMCs); assay: NASBA ratio of mitochondrial DNA to chromosomal DNA in cultured PBMCs; type: cell-based; conditions: culture period of five days, 6 μM and 60 μM
Experimental: as §1, §2

Cc1cn([C@H]2C[C@H](N=[N+]=[N-])[C@@H](CO)O2)c(=O)[nH]c1=O [AZT]
change in mitochondrial DNA to chromosomal DNA ratio (Fibroblast cells): no measurable change | Rate (%) of mitochondrial toxicity, affected organ Heart ([1]; Dilated cardio-myopathy): Rare | Rate (%) of mitochondrial toxicity, affected organ Muscle ([1]; Fatigue, myalgia, proximal weakness, wasting, Creatine kinase ↑): 17% | change in ratio of mitochondrial DNA to chromosomal DNA [2]: no measurable change
